The values that follow come from PMC11678245, “The Molecular Basis of the Intrinsic and Acquired Resistance to Azole Antifungals in Aspergillus fumigatus” (Journal of Fungi, 2024).

As usually defined, the MIC80 is the lowest concentration that inhibits either 80% of growth or 80% of the strains tested, depending on the study.

Common to all, as to format: cell-based, Saccharomyces cerevisiae
The test system of assay [1] is S. cerevisiae strain ADLS overexpressing ScCYP51-6×His. Description: MIC80 susceptibility, strain ADLS. The settings on record: for MIC80: Saccharomyces cerevisiae, Table 2, strain ADLS, SD pH 6.8, 48 h, 30 °C, ± SD, read-out: MIC80. Here is the method: (§1) The susceptibilities of S. cerevisiae strains to antifungal drugs were determined as minimum growth inhibitory concentration (MIC) values in 200 μL SD pH 6.8 [24]. Serial 2-fold dilutions of 100 μL of azole or control drugs in SD pH 6.8 were prepared in a 96-well microtiter plate. A portion of a 2 mL SD pH 6.8 overnight culture of the test strain was inoculated into 3 mL fresh SD pH 6.8 and incubated for 4 to 6 h at 30 °C to generate logarithmic-phase cells. These cells were then diluted with fresh SD pH 6.8 to OD600nm = 0.01 (3 × 10^4 CFU), and 100 μL of this cell suspension was added to microtiter plate wells. Cell growth after 48 h incubation at 30 °C with shaking at 200 rpm was determined at 600 nm using a BioTek™ Synergy™ 2 multi-Mode microplate reader controlled using Gen5™ Data Analysis Software version 3.16.10 (BioTek Instruments, Winooski, VT, USA). MIC80 values (80% growth inhibition in the presence of the test drug compared with the untreated control) for each yeast construct were determined as technical triplicates repeated three times for three separate clones.

Assay [2] concerns S. cerevisiae strain ARE (AfCyp51A-6×His, AfCprA2, AfErg6-FLAG). Description: MIC80 susceptibility, strain ARE. Here is the method: as §1
Assay [3] concerns S. cerevisiae strain ARE Y121F (AfCyp51A-6×His Y121F, AfCprA2, AfErg6-FLAG). Description: MIC80 susceptibility, strain Y121F. The settings on record: for MIC80: Saccharomyces cerevisiae, ± SD, read-out: MIC80. Here is the method: as §1
The subject of assay [4] is S. cerevisiae strain ARE Y121F T289A (AfCyp51A-6×His Y121F T289A, AfCprA2, AfErg6-FLAG). Nature of the assay: MIC80 susceptibility, strain Y121F T289A. The settings on record: for MIC80: Saccharomyces cerevisiae, ± SD, read-out: MIC80. As to the method: as §1
For assay [5], the system named is S. cerevisiae strain ARE I301T (AfCyp51A-6×His I301T, AfCprA2, AfErg6-FLAG). Description: MIC80 susceptibility, strain I301T. Conditions: for MIC80: ± SD. As to the method: as §1
Assay [6] has as its system S. cerevisiae strain BRE (AfCyp51B-6×His, AfCprA2, AfErg6-FLAG). Description: MIC80 susceptibility, strain BRE. The settings on record: for MIC80: strain BRE, ± SD. Here is the method:
as §1

In assay [7] the test system is S. cerevisiae strain ARE (Y2746). Nature of the assay: Sterol analysis of recombinant yeast strain (GC-MS). Conditions: VCZ at concentration slowing growth rate by ~50%, 20% without VCZ. Here is the method:
(§2) Yeast strains grown overnight in SD medium pH 6.8 were inoculated in 20 mL fresh medium and grown to OD600nm = 0.5. The cultures were then treated with VCZ at a concentration that reduced the rate of cell growth by ~50%. Untreated control cultures were harvested by centrifugation after 8 h at a cell density of ~2.5, and VCZ-treated cultures were harvested after ~16 h at a similar cell density. The harvested cells were prepared for sterol extraction and analysis using the method described by Müller et al..

The subject of assay [8] is S. cerevisiae strain BRE (Y2747). Described as above. Conditions: VCZ at concentration slowing growth rate by ~50%, ~1% without VCZ. As to the method: as §2
The mark [9] stands for this setting: Table 2, strain Y121F, SD pH 6.8, 48 h, 30 °C.
Setting [10] is: Table 2, strain Y121F T289A, SD pH 6.8, 48 h, 30 °C.
The mark [11] stands for this setting: Saccharomyces cerevisiae, 48 h, pH 6.8, Table 2, strain I301T, SD pH 6.8, 48 h, 30 °C, read-out: MIC80.
[12] abbreviates: Saccharomyces cerevisiae, Table 2, SD pH 6.8, 48 h, 30 °C, read-out: MIC80.

“And” between values parts separate entries of the source, which are not always exact repeats. Identical values can stand only once. Like-named read-outs stand apart in the source and are kept apart here.

On to `OC(Cn1cncn1)(Cn1cncn1)c1ccc(F)cc1F` [FLC, fluconazole], for which the MIC80 in assay [1] is 8 ± 0.2 µM; in assay [2] (Saccharomyces cerevisiae, 48 h, pH 6.8), 227 ± 19 µM; in assay [2] (Saccharomyces cerevisiae, Table 3, strain ARE, ± SD, read-out: MIC80), 151 ± 66 µM; in assay [2] (Table 2, strain ARE, SD pH 6.8, 48 h, 30 °C, ± SD), 227 ± 18 µM and 227 ± 18.5 µM; in assay [3] (setting [9]), 263 ± 31.6 µM; in assay [3] (Table 3, strain ARE Y121F), 157 ± 33 µM. Further, the MIC80 amounted to 1060 ± 60 µM in assay [4] (setting [10]); 725 ± 65 µM in assay [4] (Table 3, strain ARE Y121F T289A); 77.2 ± 5.9 µM in assay [5] (setting [11]); 65 ± 14 µM in assay [5] (Saccharomyces cerevisiae, Table 3, strain ARE I301T, read-out: MIC80); 10 ± 1.4 µM in assay [6] (setting [12]); 3.8 ± 0.9 µM in assay [6] (Saccharomyces cerevisiae, Table 3, read-out: MIC80). In addition, the MIC80 in assay [6] (Table 2, SD pH 6.8, 48 h, 30 °C) came out at 10.0 ± 1.4 µM. Further, the “MIC80 of strain ADLS relative to strain ADΔΔ” value in assay [1] (higher) stood at 3 fold. For the same compound, the “increase in resistance (MIC80) of strain Y121F T289A compared with strain ARE” value in assay [4] is recorded as 5 fold. Besides, the “increase in resistance (MIC80) of strain Y121F T289A compared with strain BRE” value in assay [4] is on record as 106 fold. Besides, in assay [4], the “increase in resistance (MIC80) of strain Y121F T289A compared with strain T289A” value worked out at 53 fold. The “increase in resistance (MIC80) of strain Y121F T289A compared with strain Y121F” value in assay [4] was determined as 4 fold. For the same compound, the “greater susceptibility (MIC80) of strain I301T compared with strain ARE” value in assay [5] worked out at 3 fold.
Consider `C[C@@H](c1ncncc1F)[C@](O)(Cn1cncn1)c1ccc(F)cc1F` [VCZ, voriconazole], for which the MIC80 in assay [1] is 0.17 ± 0.03 µM; in assay [2] (Saccharomyces cerevisiae, Table 2, strain ARE, SD pH 6.8, 48 h, 30 °C, ± SD, read-out: MIC80), 0.27 ± 0.03 µM; in assay [3] (setting [9]) it was 2.07 ± 0.21 µM; in assay [4] (setting [10]) it was 2.86 ± 0.22 µM; in assay [5] (setting [11]), less than 0.12 µM; in assay [5] (Table 2, strain I301T, SD pH 6.8, 48 h, 30 °C) it was 0.11 ± 0.00 µM. In addition, the MIC80 in assay [6] (setting [12]) worked out at 0.21 ± 0.02 µM. In assay [2] (higher), the “MIC80 of strain ARE relative to strain ADΔΔ” value was 4- to 5 fold. Moreover, in assay [3], the “increase in resistance (MIC80) of strain Y121F compared with strain ARE” value is > 8 fold and 8 fold. Besides, in assay [4], the “increase in resistance (MIC80) of strain Y121F T289A compared with strain BRE” value was determined as 4 fold. Moreover, in assay [4], the “increase in resistance (MIC80) of strain Y121F T289A compared with strain T289A” value was determined as 4 fold. The “MIC80 of strain BRE relative to strain ADΔΔ” value in assay [6] (higher) was 4- to 5 fold. For the same compound, the “eburicol content in the presence of VCZ” value in assay [7] is given as 25 % of total sterol; in assay [8] it was ~ 20 % of total sterol.
